Results on two compounds are retold here after US11116213B2, “Herbicidal composition comprising cinmethylin and pethoxamid” (BASF Agro B.V., priority 2015, dated 2021).

Holding throughout (type): in vivo
For one assay, the system named is Abutilon theophrasti. The assay can be described thus: Greenhouse pre-emergence herbicidal activity on ABUTH. The conditions noted are these: 20 DAT. As for the experimental part:
(§1) The test plants have been seeded, separately for each species, in plastic containers in sandy loamy soil containing 5% of organic matter.
(§2) The containers were irrigated gently to promote germination and growth and subsequently covered with transparent plastic hoods until the plants had rooted.
(§3) The plants have been cultivated due to their individual requirements at 10-25° C. and 20-35° C.
(§4) The plants were irrigated due to their necessity.
(§5) The racemic mixture (±)-2-exo-(2-Methylbenzyloxy)-1-methyl-4-isopropyl-7-oxabicyclo[2.2.1]heptane was used as herbicide A and formulated as an emulsifiable concentrate with an active ingredient concentration of 750 g/l.
(§6) Pethoxamid (herbicide B) was used as an emulsifiable concentrate formulation having an active ingredient concentration of 600 g/l.
(§7) In the following experiments, the herbicidal activity for the individual herbicidal compositions (solo and mixture applications) was assessed 20 days after treatment (DAT).
(§8) The evaluation for the damage on undesired weeds caused by the chemical compositions was carried out using a scale from 0 to 100%, compared to the untreated control plants. Here, 0 means no damage and 100 means complete destruction of the plants. […]

The test system of another assay is Alopecurus myosuroides. Briefly: Greenhouse pre-emergence herbicidal activity on ALOMY. The conditions noted are these: 20 DAT. As for the experimental part: as §1, §2, §3, §4, §5, §6, §7, §8
The test system of another assay is Anthemis arvensis. The assay can be described thus: Greenhouse pre-emergence herbicidal activity on ANTAR. Conditions: 20 DAT; for herbicidal activity (%): herbicide A solo. The procedure:
as §1, §2, §3, §4, §5, §6, §7
(§9) The evaluation for the damage on undesired weeds caused by the chemical compositions was carried out using a scale from 0 to 100%, compared to the untreated control plants. Here, 0 means no damage and 100 means complete destruction of the plants.
(§10) E=X+Y−(X·Y/100) where • X=effect in percent using herbicide A at an application rate a; • Y=effect in percent using herbicide B at application rate b; • E=expected effect (in %) of herbicide A+herbicide B at application rates a+b.
(§11) The value E corresponds to the effect (plant damage or injury) which is to be expected if the activity of the individual compounds is additive.
(§12) Table 1 below relates to the herbicidal activity, in greenhouse trials, of the individual actives and the combinations applied at different rates and ratios, in pre-emergence application at 20 days after treatment (DAT).

Another assay concerns Avena fatua. The assay can be described thus: Greenhouse pre-emergence herbicidal activity on AVEFA. Conditions: 20 DAT; for herbicidal activity (%): herbicide A solo. The procedure:
as §1, §2, §3, §4, §5, §6, §7, §9, §10, §11, §12

For the next assay, the system named is Brassica napus. The assay can be described thus: Greenhouse pre-emergence herbicidal activity on BRSNW. The conditions noted are these: 20 DAT. As for the experimental part:
as §1, §2, §3, §4, §5, §6, §7, §8

In a further assay the test system is Chenopodium album. The assay can be described thus: Greenhouse pre-emergence herbicidal activity on CHEAL. Conditions: 20 DAT. As for the experimental part: as §1, §2, §3, §4, §5, §6, §7, §8
In a further assay the test system is Lolium multiflorum. The assay can be described thus: Greenhouse pre-emergence herbicidal activity on LOLMU. The conditions noted are these: 20 DAT. The procedure: as §1, §2, §3, §4, §5, §6, §7, §8
The test system of another assay is Polygonum convolvulus. The assay can be described thus: Greenhouse pre-emergence herbicidal activity on POLCO. Conditions: 20 DAT; for herbicidal activity (%): herbicide A solo. As for the experimental part: as §1, §2, §3, §4, §5, §6, §7, §9, §10, §11, §12
For the next assay, the system named is Setaria viridis. The assay can be described thus: Greenhouse pre-emergence herbicidal activity on SETVI. The conditions noted are these: 20 DAT. As for the experimental part:
as §1, §2, §3, §4, §5, §6, §7, §8

In a further assay the test system is Sorghum halepense. Briefly: Greenhouse pre-emergence herbicidal activity on SORHA. Conditions: 20 DAT. As for the experimental part: as §1, §2, §3, §4, §5, §6, §7, §8
Setting [1] is: herbicide A solo, 31.25 g ai/ha.

In the case of `CCOCCN(C(=O)CCl)C(=C(C)C)c1ccccc1` [pethoxamid, 2-chloro-N-(2-ethoxyethyl)-N-(2-methyl-1-phenylprop-1-enyl)acetamide], the inhibition at 62.5 g/ha in the assay on Abutilon theophrasti (Abutilon theophrasti, 480 h, pethoxamid solo, 62.5 g ai/ha) turned out to be 20%; in the assay on Anthemis arvensis (Anthemis arvensis, 480 h, pethoxamid solo, 62.5 g ai/ha) it was 20%; in the assay with Chenopodium album (Chenopodium album, 480 h, pethoxamid solo, 62.5 g ai/ha) it was 40%; in the assay with Lolium multiflorum (Lolium multiflorum, 480 h, pethoxamid solo, 62.5 g ai/ha), 50%; in the assay with Setaria viridis (Setaria viridis, 480 h, pethoxamid solo, 62.5 g ai/ha) it was 80%. The inhibition at 125 g/ha in the assay with Alopecurus myosuroides (Alopecurus myosuroides, 480 h, pethoxamid solo, 125 g ai/ha) was 35%; in the assay with Anthemis arvensis (Anthemis arvensis, 480 h, pethoxamid solo, 125 g ai/ha), 60%; with Avena fatua (Avena fatua, 480 h, pethoxamid solo, 125 g ai/ha) it was 40%; in the assay with Polygonum convolvulus (Fallopia convolvulus, 480 h, pethoxamid solo, 125 g ai/ha) it was 15%; in the assay on Sorghum halepense (Sorghum halepense, 480 h, pethoxamid solo, 125 g ai/ha), 85%. For the same compound, the inhibition at 250 g/ha with Avena fatua (Avena fatua, 480 h, pethoxamid solo, 250 g ai/ha) amounted to 40%; in the assay with Polygonum convolvulus (Fallopia convolvulus, 480 h, pethoxamid solo, 250 g ai/ha) it was 15%. Further, the inhibition at 500 g/ha in the assay on Avena fatua (Avena fatua, 480 h, pethoxamid solo, 500 g ai/ha) turned out to be 50%; in the assay with Brassica napus (Brassica napus, 480 h, pethoxamid solo, 500 g ai/ha) it was 0%; with Polygonum convolvulus (Fallopia convolvulus, 480 h, pethoxamid solo, 500 g ai/ha), 30%.
For “(±)-2-exo-(2-Methylbenzyloxy)-1-methyl-4-isopropyl-7-oxabicyclo[2.2.1]heptane [herbicide A]”, the “herbicidal activity (%)” value in the assay with Abutilon theophrasti (setting [1]) is given as 30%; in the assay with Alopecurus myosuroides (herbicide A solo, 62.5 g ai/ha), 98%; in the assay on Anthemis arvensis (31.25 g ai/ha), 0%; in the assay on Anthemis arvensis (62.5 g ai/ha), 0%; in the assay on Avena fatua (62.5 g ai/ha) it was 0%; with Avena fatua (125 g ai/ha), 25%. Moreover, the “herbicidal activity (%)” value in the assay on Avena fatua (250 g ai/ha) amounted to 35%; in the assay with Brassica napus (herbicide A solo, 250 g ai/ha), 0%; in the assay with Chenopodium album (setting [1]), 40%; in the assay on Lolium multiflorum (setting [1]), 60%; in the assay with Polygonum convolvulus (62.5 g ai/ha), 0%; in the assay on Polygonum convolvulus (125 g ai/ha), 0%. The “herbicidal activity (%)” value with Polygonum convolvulus (250 g ai/ha) was 15%; in the assay on Setaria viridis (setting [1]), 90%; in the assay on Sorghum halepense (herbicide A solo, 62.5 g ai/ha) it was 80%.
